# Experimental data as given in ChEMBL document CHEMBL1129616, “Synthesis and evaluation of novel thymidine analogs as antitumor and antiviral agents” (J Med Chem, 1996).
# System: SV-28
# Experiment: Compound was tested for its effect on (target DNA or RNA) cell plating efficiency at 25 uM after a 24 hr exposure (the SV-28 cell has a plating efficiency between 50 and 60%)
# Format: functional, Cricetulus griseus
smiles,measurement,value
CCCCCCCCCCCCCCCC(=O)CC[N+](C)(C)CCOCn1cc(C)c(=O)[nH]c1=O.[I-],Cell plating efficiency,47%
